Source: patent US20230192617A1, “AZABICYCLIC(THIO)AMIDES AS FUNGICIDAL COMPOUNDS” (Bayer CropScience Aktiengesellschaft, priority 2020, published 2023)

Experiments:
Pyrenophora teres [1] = assay: B-10. Pyrenophora teres in vitro cell test; format: cell-based; details: 144 h, 20 ppm of active ingredient, 6 days incubation, liquid culture, absorbance, read-out: efficacy (inhibition of fungal growth)
Summary of the method: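 Liquid-culture assay on a P. teres spore suspension with compounds added to the medium from DMSO solutions, final DMSO ≤1%. Mycelium growth read spectrometrically after 6 days. Inhibition calculated from absorbance against untreated control wells.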

[2] = Measurement of Log P values by HPLC on reversed phase columns (EEC directive 79/831 Annex V.A8); format: physicochemical; details: reversed phase HPLC column, method [a]: LC-UV, acidic range, 0.1% formic acid in water and acetonitrile as eluent
Summary of the method: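 Log P derived from retention on reversed-phase columns (EEC directive 79/831 Annex V.A8), LC-UV, acetonitrile gradient 10% to 95% against water containing 0.1% formic acid, 0.001 M ammonium acetate, or 0.1% phosphoric acid; several values per method separated by "+".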

Alternaria alternata = Alternaria alternata in vitro cell test; format: cell-based; details: 120 h, 20 ppm of active ingredient, liquid culture, 5 days incubation, spectrometric measurement of mycelium growth, read-out: efficacy (inhibition of fungal growth)
Summary of the method: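 Spectrometric readout of mycelial growth after 5-day incubation gauged compound effects on spore germination and growth of A. alternata in liquid medium. Compounds were delivered in DMSO at ≤1% final. Absorbance was compared with untreated controls to give inhibition.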

[3] = test system: Colletotrichum lindemuthianum; assay: B-8. Colletotrichum lindemuthianum in vitro cell test; format: cell-based; details: 144 h, 20 ppm of active ingredient, 6 days incubation, liquid culture, absorbance, read-out: efficacy (inhibition of fungal growth)
Summary of the method: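 Liquid-culture germination/growth test: compounds in ≤1% final DMSO were added to spore-containing medium. Fungal growth was quantified spectrophotometrically after 6 days of incubation and expressed as inhibition versus untreated controls.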

Sphaerotheca fuliginea = assay: In vivo preventive test on Sphaerotheca fuliginea (powdery mildew on cucurbits); details: Podosphaera fuliginea, 192 h; 500 ppm of active ingredient; preventive spray on gherkin; evaluated 8 days after inoculation; read-out: efficacy
Summary of the method: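 This is a preventive spray test on gherkin seedlings, with compound formulated in DMSO/acetone/Tween 80 in water and solvent-only controls. Spore inoculation followed one day after treatment. Incubation lasted 8 days at 20 °C, 70–80% RH.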

[4] = test system: Colletotrichum lindemuthianum; assay: In vivo preventive test on Colletotrichum lindemuthianum (leaf spot on bean); details: 168 h, 500 ppm of active ingredient, preventive spray on bean, evaluated 7 days after inoculation, read-out: efficacy
Summary of the method: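 Young bean plants sprayed with compound in DMSO/acetone/Tween 80 diluted in water; solvent-only controls. Inoculated 24 h later with C. lindemuthianum spore suspension, then kept 24 h at 20 °C/100% RH and 6 days at 20 °C/90% RH.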

Pyrenophora teres [5] = assay: In vivo preventive test on Pyrenophora teres (net blotch on barley); details: 240 h, 500 ppm of active ingredient, preventive spray on barley, evaluated 10 days after inoculation, read-out: efficacy
Description: B-3. In Vivo Preventive Test on Pyrenophora Teres (Net Blotch on Barley) [table] The active ingredients were made soluble and homogenized in a mixture of Dimethyl sulfoxide/Acetone/Tween® 80 and then diluted in water to the desired concentration. The young plants of barley were treated by spraying the active ingredient prepared as described above. Control plants were treated only with an aqueous solution of Acetone/Dimethyl sulfoxide/Tween® 80. After 24 hours, the plants were contaminated by spraying the leaves with an aqueous suspension of Pyrenophora teres spores. The contaminated barley plants were incubated for 48 hours at 20° C. and at 100% relative humidity and then for 8 days at 20° C. and at 70-80% relative humidity.

Alternaria brassicae = assay: In vivo preventive test on Alternaria brassicae (leaf spot on radish or cabbage); details: 500 ppm of active ingredient, preventive spray on radish or cabbage, evaluated 3 to 4 days after inoculation, read-out: efficacy
Summary of the method: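 Protective spray on young radish or cabbage: actives in water diluted from DMSO/acetone/Tween 80, with solvent-only controls. Leaves were challenged after 24 h with a spore suspension, and plants were held at 100% RH, 20 °C for 3 to 4 days.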

Botrytis cinerea [6] = assay: In vivo preventive test on Botrytis cinerea (grey mould); details: 500 ppm of active ingredient, preventive spray on gherkin or cabbage, evaluated 4 to 5 days after inoculation, read-out: efficacy
Summary of the method: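 Preventive spray on cabbage or gherkin seedlings, with compound formulated in DMSO/acetone/Tween 80 and water-diluted, preceded spore inoculation by 24 hours. Cabbage was held 4 to 5 days at 20° C., 100% relative humidity; gherkin 4 to 5 days at 17° C., 90% relative humidity.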

Botrytis cinerea [7] = assay: B-11. Botrytis cinerea in vitro cell test; format: cell-based; details: 144 h, 20 ppm of active ingredient, 6 days incubation, liquid culture, absorbance, read-out: efficacy (inhibition of fungal growth)
Summary of the method: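 B. cinerea spores were grown in liquid culture with compound (DMSO ≤1% final). Mycelium growth was measured spectrometrically after 6 days, with inhibition taken as absorbance relative to untreated control wells.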

Septoria tritici = assay: B-9. Septoria tritici in vitro cell test; format: cell-based; details: Zymoseptoria tritici, 168 h; 20 ppm of active ingredient; 7 days incubation; liquid culture, absorbance; read-out: efficacy (inhibition of fungal growth)
Description: B-9. Septoria tritici In Vitro Cell Test [table] Fungicides were solubilized in DMSO and the solution used to prepare the required range of concentrations. The final concentration of DMSO used in the assay was ≤1%. A spore suspension of S. tritici was prepared and diluted to the desired spore density. Fungicides were evaluated for their ability to inhibit spore germination and mycelium growth in liquid culture assay. The compounds were added in the desired concentration to the culture medium with spores. After 7 days incubation, fungi-toxicity of compounds was determined by spectrometric measurement of mycelium growth. Inhibition of fungal growth was determined by comparing the absorbance values in wells containing the fungicides with the absorbance in control wells without fungicides.

Structure (SMILES)	inhibition at 20 ppm (Pyrenophora teres [1]) [%]	chromatographic logP [2]	inhibition at 20 ppm (Alternaria alternata) [%]	inhibition at 20 ppm [3] [%]	pest or weed control at 500 ppm (Sphaerotheca fuliginea) [%]	pest or weed control at 500 ppm [4] [%]	pest or weed control at 500 ppm (Pyrenophora teres [5]) [%]	pest or weed control at 500 ppm (Alternaria brassicae) [%]	pest or weed control at 500 ppm (Botrytis cinerea [6]) [%]	inhibition at 20 ppm (Botrytis cinerea [7]) [%]	inhibition at 20 ppm (Septoria tritici) [%]
Cc1ccc(C(F)(F)CNC(=O)c2c(Oc3cccc(C4CC4)c3)cnc3ccccc23)c(C)c1 [I-223]	90 to 100	4.59	90 to 100	90 to 100	90 to 100	90 to 100	80 to 89	90 to 100	90 to 100	90 to 100	–
Cc1cc(Cl)ccc1C(F)(F)CNC(=O)c1c(Oc2cccc(C(F)F)c2)nnc2c1CCCC2 [I-163]	90 to 100	–	90 to 100	90 to 100	–	–	–	–	–	90 to 100	90 to 100
Cc1ccc(C(F)(F)CNC(=O)c2c(Oc3cccc(C4CC4)c3F)cnc3ccccc23)c(C)c1 [I-224]	90 to 100	4.63	90 to 100	90 to 100	90 to 100	90 to 100	70 to 79	80 to 89	90 to 100	90 to 100	–
Cc1ccc(C(F)(F)CNC(=O)c2c(Oc3cccc(Br)c3)cnc3ccccc23)c(C)c1 [I-226]	90 to 100	4.48	90 to 100	90 to 100	90 to 100	90 to 100	70 to 79	90 to 100	90 to 100	90 to 100	–
O=C(NC[C@H](F)c1ccc(C2CC2)cc1Cl)c1c(Oc2cccc(Cl)c2)nnc2ccccc12 (racemic) [I-054]	–	4.47	90 to 100	90 to 100	70 to 79	90 to 100	80 to 89	90 to 100	90 to 100	90 to 100	–
Cc1ccc(C(F)CNC(=O)c2c(Oc3cccc(Cl)c3)nnc3c2CCCC3)c(C)c1 (centres unmarked) [I-233]	90 to 100	3.73	90 to 100	90 to 100	–	–	–	–	–	90 to 100	90 to 100
O=C(NCC(F)c1ccc(Cl)cc1Cl)c1c(Oc2cccc(C(F)F)c2)nnc2c1CCCC2 (centres unmarked) [I-177]	90 to 100	3.63	90 to 100	90 to 100	–	–	–	–	–	90 to 100	90 to 100
Cc1cc(Cl)ccc1[C@@H](F)CNC(=O)c1c(Oc2cccc(Cl)c2)nnc2ccccc12 (racemic) [I-053]	–	4.23	90 to 100	90 to 100	80 to 89	90 to 100	70 to 79	90 to 100	90 to 100	90 to 100	–
Cc1ccc(C(F)CNC(=O)c2c(Oc3cccc(Cl)c3F)nnc3c2CCC3)c(C)c1 (centres unmarked) [I-236]	90 to 100	3.73	80 to 89	–	90 to 100	90 to 100	90 to 100	90 to 100	90 to 100	90 to 100	–
